{
  "source": "paper PMC5062570",
  "about": "(Nature Communications, 2016)",
  "key": {"[1]": {"assay": "pKa determination by multiplexed capillary electrophoresis", "assay_type": "physicochemical", "details": "aqueous buffers, read-out: pKa", "experimental": "All pKa values were determined at Analiza, Inc. by multiplexed capillary electrophoresis (mCE) using 96-capillary array electrophoresis instrument to measure the effective mobility (migration time of the compound in relation to neutral marker, DMSO) with ultraviolet detection. The pKa values were obtained from the ionization curves by plotting the compound effective mobility (24 points across pH range 1.7–11.2) versus pH. All pKa results were determined using aqueous buffers with method average absolute error 0.12."}, "[2]": {"molecular_target": "T1, ~30 kDa band (CatD heavy chain) in ARPE-19 cells (Homo sapiens, UniProt P07339)", "T1 construct": "host or cells: ARPE-19", "T1 sequence (P07339 169-412 limits assumed)": "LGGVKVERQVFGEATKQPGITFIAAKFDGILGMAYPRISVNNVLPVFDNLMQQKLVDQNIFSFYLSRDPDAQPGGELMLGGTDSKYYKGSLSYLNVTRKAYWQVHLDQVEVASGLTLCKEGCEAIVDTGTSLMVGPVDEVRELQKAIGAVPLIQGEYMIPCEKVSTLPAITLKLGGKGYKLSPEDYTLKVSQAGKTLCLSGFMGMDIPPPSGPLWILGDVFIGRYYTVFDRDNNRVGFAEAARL", "T1 sequence (P07339 65-162 limits assumed)": "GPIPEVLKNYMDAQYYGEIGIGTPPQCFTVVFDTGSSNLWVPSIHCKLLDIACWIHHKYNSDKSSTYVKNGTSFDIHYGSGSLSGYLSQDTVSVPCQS", "assay": "Live cell PF-7802 labelling, in-gel fluorescence analysis", "assay_type": "cell-based", "details": "pretreatment 2 µM inhibitor, PF-7802 100 nM", "procedure": "Cells were lysed with sonication on ice in 70 μl DPBS and protein concentrations were determined using a BCA assay (Pierce). […] Gels were fixed in 50% MeOH/7% AcOH for 15 min, then rinsed with 40% MeOH for at least 20 min before in-gel fluorescence scanning (Typhoon Trio, excitation 532 nm, emission 580 nm)."}, "[3]": {"system": "retinal pigment epithelium (RPE)", "assay": "Exploratory toxicology, ocular toxicity by retinal histology in rats", "assay_type": "in vivo", "details": "rat, 7 days", "experimental": "(§1) Wistar Han rats (obtained from Charles River, 125–300 g, 6–9 weeks old at study start, see Supplementary Table 7 for number of males and females) received daily oral dosing of test compounds or vehicle at the indicated concentrations for 7–29 days as indicated. The doses were prepared in a solution of 0.5% methylcellulose and 0.2% polysorbate 80, or 0.5% methylcellulose and hydroxypropyl methylcellulose acetate succinate (high fine grade) and delivered in a volume of 10 ml kg^−1 per day. Blood samples for bioanalytical analysis were collected in K2EDTA tubes via jugular vessel. Plasma was isolated after centrifugation and stored at −20 °C prior to analysis. Animals were given an additional dose the day after the end of the study (days 8, 15 or 30 for 7, 14 and 29 day studies, respectively) then killed by gas anaesthesia (isoflurane) followed by exsanguination ∼3 h after this final dose."}, "[4]": {"assay": "Plasma exposure (average unbound plasma concentration) in rats", "assay_type": "in vivo, rat", "details": "Wistar Han, oral, rat, 7 days, average unbound plasma concentration, read-out: Avg Cp,u parent", "experimental": "as §1\nPlasma samples were analysed after protein precipitation by treating 20 μl of sample matrix with 200 μl of acetonitrile containing internal standard. All samples were centrifuged at 3,000 r.p.m. for 5 min. Then 100 μl of supernatant was transferred to a clean plate and evaporated to dryness under N2. Samples were reconstituted in 200 μl of 80:20 (v:v) acetonitrile:water. Samples were analysed on Waters Acquity UPLC connected to AB Sciex API5500 QTrap MS/MS.\nPlasma protein binding was determined in the Rapid Equilibrium Device (RED, Thermo Scientific). Frozen plasma was warmed to 37 °C and adjusted to pH 7.4. The plasma was spiked with compound to a final concentration of 2 μM. Aliquots of spiked plasma were added to the donor (red) side, followed by addition of buffer to the receiver (white) side. The RED device was covered with a gas-permeable membrane and agitated within a humidified CO2 incubator (5% CO2, 75% relative humidity). Plasma (15 μl) and buffer (45 μl) were sampled from each insert and were matrix-matched with appropriate blank matrix (plasma with 45 μl buffer and buffer with 15 μl of plasma). Samples were protein-precipitated with acetonitrile containing internal standard, and the resulting supernatant was analysed by LC-MS/MS."}, "[5]": {"system": "retinal pigment epithelium (RPE)", "set-up": "method as in PMID 22090477, PMID 25361751", "details": "cited from earlier work"}, "CatD": {"molecular_target": "CatD (Homo sapiens, UniProt P07339)", "sequence (P07339 169-412 limits assumed)": "as the sequence (P07339 169-412 limits assumed) above", "sequence (P07339 65-162 limits assumed)": "as the sequence (P07339 65-162 limits assumed) above", "assay": "CatD cellular assay (competition of PF-7802 photolabelling in live ARPE-19 cells)", "assay_type": "cell-based", "set-up": "host or cells: ARPE-19", "experimental": "ARPE-19 cells were plated at a density of 1.2 × 10^6 cells per well in six-well dishes 12–24 h before probe labelling. Culture media was removed completely and replaced with 1 ml of the appropriate serum-free media (no supplements) per well. Cells were then pretreated with test compounds at the indicated concentrations for 30 min (0.5% DMSO, 37 °C, 5% CO2). […] Ultraviolet irradiation was performed without culture plate lids for efficient irradiation, and samples were slowly rotated to prevent evaporation. After ultraviolet irradiation, cells were washed twice with Dulbecco's phosphate-buffered saline (DPBS), scraped into DPBS, centrifuged and stored as pellets at −80 °C.\nCells were lysed with sonication on ice in 70 μl DPBS and protein concentrations were determined using a BCA assay (Pierce). Total protein concentrations were then normalized to 1 mg ml^−1 in 50 μl total volume before addition of 5.5 μl click chemistry mix (1 : 3 : 1 : 0.5 volume of 50 mM CuSO4 (Sigma) in H2O : 1.7 mM TBTA (Sigma) in 4:1 t-BuOH:DMSO : 50 mM TCEP (Hampton Research) in dPBS : 10 mM TAMRA-azide (Lumiprobe) in DMSO - mixed immediately before use. Reagent solutions can be premade and stored at 4 °C except for TCEP, which should be made immediately before use). […] All fluorescence gels are presented in greyscale."}, "BACE1": {"molecular_target": "BACE1 (Homo sapiens, UniProt P56817)", "sequence (P56817 46-501)": "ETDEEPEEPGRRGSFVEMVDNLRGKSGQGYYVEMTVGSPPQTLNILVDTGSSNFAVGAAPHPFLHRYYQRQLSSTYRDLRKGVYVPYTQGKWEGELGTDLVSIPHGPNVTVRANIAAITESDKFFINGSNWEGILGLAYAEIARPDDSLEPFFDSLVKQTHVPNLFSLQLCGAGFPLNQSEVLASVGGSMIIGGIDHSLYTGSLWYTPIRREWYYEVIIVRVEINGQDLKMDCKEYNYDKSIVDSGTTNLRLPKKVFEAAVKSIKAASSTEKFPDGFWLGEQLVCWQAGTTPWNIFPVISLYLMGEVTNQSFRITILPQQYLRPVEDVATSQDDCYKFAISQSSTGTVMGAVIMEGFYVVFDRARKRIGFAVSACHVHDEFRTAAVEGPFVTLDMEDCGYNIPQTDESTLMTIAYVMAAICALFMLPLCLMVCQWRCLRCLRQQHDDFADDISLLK", "assay": "BACE1 biochemical cellular assay (sAPPβ ELISA in H4 cells overexpressing APP695)", "assay_type": "cell-based", "set-up": "endogenous in cells; host or cells: H4 human neuroglioma cells overexpressing human APP695", "details": "BACE1 enzyme IC50 versus BACE1 cellular IC50", "experimental": "Cellular inhibition of BACE1 was determined by measuring sAPPβ, the primary cleavage product of BACE-1, in H4 human neuroglioma cells overexpressing the wild-type human APP695. […] The colorimetric reaction was read by an EnVision plate reader (PerkinElmer)."}},
  "note": "Read-outs that look alike come from different tables or passages of the source.",
  "data": [
    {"smiles": "C[C@@]1(c2cc(-c3cncnc3)c(F)cc2F)CCSC(N)=N1", "note": "[LY2811376, reference compound]", "values": [
      {"measurement": "pKa", "setting": "[1]", "result": 8.9},
      {"measurement": "Competition of PF-7802 labelling of the 30 kDa band", "setting": "[2]", "result": "blocked labelling of the 30 kDa band"},
      {"measurement": "Male ocular toxicity incidence (positive or negative animals / total evaluated)", "setting": "[3]; 25 mg kg-1 once daily", "result": "1/4"},
      {"measurement": "Male ocular toxicity outcome", "setting": "[3]; 25 mg kg-1 once daily", "result": "Pos"},
      {"measurement": "Male ocular toxicity incidence (positive or negative animals / total evaluated)", "setting": "[3]; 75 mg kg-1 once daily", "result": "4/4"},
      {"measurement": "Male ocular toxicity outcome", "setting": "[3]; 75 mg kg-1 once daily", "result": "Pos"},
      {"measurement": "concentration at 7 days", "setting": "[4]; 25 mg kg-1 once daily", "result": 741, "unit": "nM"},
      {"measurement": "concentration at 7 days", "setting": "[4]; 75 mg kg-1 once daily", "result": 4370, "unit": "nM"},
      {"measurement": "Ocular toxicity in preclinical animal models", "setting": "[5]", "result": "ocular toxicity in preclinical animal models"},
      {"measurement": "CatD potency difference between cell-free enzyme and cellular assays", "setting": "CatD", "result": 95, "unit": "fold"},
      {"measurement": "CatD potency increase in live cells", "setting": "CatD; CatD enzyme IC50 versus CatD cellular IC50", "result": 95, "unit": "x"},
      {"measurement": "BACE1 potency increase in live cells", "setting": "BACE1", "result": 18, "unit": "x"}
    ]}
  ]
}
